Assays:
ROCK2 kinase = biological target: T1, ROCK2 kinase (Homo sapiens, UniProt O75116); assay: In vitro evaluation of ROCK2 kinase activity (HTRF KinEASE-STK time-resolved fluorometric assay); format: biochemical
T1 construct: purchased Invitrogen PV3759
Description: ROCK2 activity screening. ROCK2 activity was detected using a 96-well (Cisbio) time-resolved fluorometric assay. The assay for ROCK2 was performed in the following assay buffer: 5 mM MgCl2 (Sigma), 1 mM DTT (Sigma) and 1× kinase buffer. The kinase buffer was used for dilution. 7.5 μL of ROCK2 kinase (Invitrogen, PV3759) was added to a 96-well microplate to reach a final concentration of 0.4 ng/μL, and then 0.25 μL of test compound (DMSO content: 1% (volume fraction)) was added. The mixture was incubated at room temperature for 0.5 h. To start the reaction, the kinase buffer was used to mix ATP (Aladdin) and the substrate STK-substrate 2-biotin. 7.5 μL of the mixed solution was added to the microplate to reach final concentrations of 6.739 μM and 1 μM. The resulting mixture was incubated for 2 h at room temperature. 5 mL of detection buffer was mixed with STK antibody-Cryptate, and then an appropriate volume of the mixture was mixed with an equal volume of streptavidin-XL665. 10 μL of the resulting mixture was added to the microplate to stop the reaction. After further incubation for about 1 h, the microplate was read on a Molecular Devices SpectraMax i3x multifunctional microplate reader. The kinase buffer, the STK-substrate 2-biotin, the detection buffer, the STK antibody-Cryptate, and the streptavidin-XL665 were all from HTRF KinEASE-STK kit (Cisbio, 1000 tests, 61[…]).

ROCK1 kinase = biological target: T2, ROCK1 kinase (Homo sapiens, UniProt Q13464); assay: In vitro evaluation of ROCK1 kinase selectivity (HTRF KinEASE-STK time-resolved fluorometric assay); format: biochemical
T2 construct: purchased Invitrogen
T2 sequence (Q13464 whole entry): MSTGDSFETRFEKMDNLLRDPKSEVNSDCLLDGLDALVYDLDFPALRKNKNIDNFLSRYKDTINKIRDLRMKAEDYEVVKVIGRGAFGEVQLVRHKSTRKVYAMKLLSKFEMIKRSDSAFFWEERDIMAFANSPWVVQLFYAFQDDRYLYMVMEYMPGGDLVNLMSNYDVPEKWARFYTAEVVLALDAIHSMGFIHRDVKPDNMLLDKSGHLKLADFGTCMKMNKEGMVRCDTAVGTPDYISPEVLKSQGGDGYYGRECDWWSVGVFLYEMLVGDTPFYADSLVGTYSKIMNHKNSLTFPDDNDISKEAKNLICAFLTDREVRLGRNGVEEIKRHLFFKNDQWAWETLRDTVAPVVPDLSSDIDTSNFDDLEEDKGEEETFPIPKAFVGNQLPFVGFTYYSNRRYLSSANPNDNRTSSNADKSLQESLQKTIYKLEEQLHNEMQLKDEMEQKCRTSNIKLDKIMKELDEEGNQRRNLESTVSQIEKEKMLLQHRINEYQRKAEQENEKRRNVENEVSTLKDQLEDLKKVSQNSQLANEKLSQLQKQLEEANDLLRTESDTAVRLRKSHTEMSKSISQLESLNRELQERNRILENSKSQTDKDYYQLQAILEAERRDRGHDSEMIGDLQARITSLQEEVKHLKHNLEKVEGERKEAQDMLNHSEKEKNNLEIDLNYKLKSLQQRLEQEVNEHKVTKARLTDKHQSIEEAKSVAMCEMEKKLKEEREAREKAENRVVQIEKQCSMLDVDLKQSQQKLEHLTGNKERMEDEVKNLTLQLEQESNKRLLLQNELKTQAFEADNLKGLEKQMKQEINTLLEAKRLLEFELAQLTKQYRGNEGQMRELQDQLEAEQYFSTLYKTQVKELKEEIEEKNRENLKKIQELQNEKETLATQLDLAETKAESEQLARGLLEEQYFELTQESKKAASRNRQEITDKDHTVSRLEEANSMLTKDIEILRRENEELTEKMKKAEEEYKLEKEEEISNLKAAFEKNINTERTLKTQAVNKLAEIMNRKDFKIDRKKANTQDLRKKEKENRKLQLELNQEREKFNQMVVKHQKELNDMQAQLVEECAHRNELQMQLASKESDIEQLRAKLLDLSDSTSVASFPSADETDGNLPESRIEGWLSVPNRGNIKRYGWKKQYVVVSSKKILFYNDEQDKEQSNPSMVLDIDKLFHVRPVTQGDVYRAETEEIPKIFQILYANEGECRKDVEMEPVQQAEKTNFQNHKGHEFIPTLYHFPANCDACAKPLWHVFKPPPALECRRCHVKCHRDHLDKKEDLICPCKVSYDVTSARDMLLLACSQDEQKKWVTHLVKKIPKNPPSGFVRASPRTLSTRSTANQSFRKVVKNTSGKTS
Description: ROCK1 activity was detected using a 96-well (Cisbio) time-resolved fluorometric assay. The assay for ROCK1 was performed in the following assay buffer: 5 mM MgCl2 (Sigma), 1 mM DTT (Sigma) and 1× kinase buffer. The kinase buffer was used for dilution. 7.5 μL of ROCK1 kinase (Invitrogen) was added to a 96-well microplate to reach a final concentration of 0.4 ng/μL, and then 0.25 μL of test compound (DMSO content: 1%) was added. The mixture was incubated at room temperature for 0.5 h. To start the reaction, the kinase buffer was also used to mix ATP (Aladdin) and the substrate STK-substrate 2-biotin. 7.5 μL of the mixed solution was added to the microplate to reach final concentrations of 3.53 μM and 1 μM. The resulting mixture was incubated for 2 h at room temperature. […] was mixed with STK antibody-Cryptate, and then an appropriate volume of the mixture was mixed with an equal volume of streptavidin-XL665. 10 μL of the resulting mixture was added to stop the reaction. After further incubation for about 1 h, the microplate was read on a Molecular Devices SpectraMax i3x multifunctional microplate reader. The kinase buffer, the STK-substrate 2-biotin, the detection buffer, the STK antibody-Cryptate, and the streptavidin-XL665 were all from HTRF KinEASE-STK kit (Cisbio, 1000 tests, 61[…]).

T1 sequence (O75116 whole entry): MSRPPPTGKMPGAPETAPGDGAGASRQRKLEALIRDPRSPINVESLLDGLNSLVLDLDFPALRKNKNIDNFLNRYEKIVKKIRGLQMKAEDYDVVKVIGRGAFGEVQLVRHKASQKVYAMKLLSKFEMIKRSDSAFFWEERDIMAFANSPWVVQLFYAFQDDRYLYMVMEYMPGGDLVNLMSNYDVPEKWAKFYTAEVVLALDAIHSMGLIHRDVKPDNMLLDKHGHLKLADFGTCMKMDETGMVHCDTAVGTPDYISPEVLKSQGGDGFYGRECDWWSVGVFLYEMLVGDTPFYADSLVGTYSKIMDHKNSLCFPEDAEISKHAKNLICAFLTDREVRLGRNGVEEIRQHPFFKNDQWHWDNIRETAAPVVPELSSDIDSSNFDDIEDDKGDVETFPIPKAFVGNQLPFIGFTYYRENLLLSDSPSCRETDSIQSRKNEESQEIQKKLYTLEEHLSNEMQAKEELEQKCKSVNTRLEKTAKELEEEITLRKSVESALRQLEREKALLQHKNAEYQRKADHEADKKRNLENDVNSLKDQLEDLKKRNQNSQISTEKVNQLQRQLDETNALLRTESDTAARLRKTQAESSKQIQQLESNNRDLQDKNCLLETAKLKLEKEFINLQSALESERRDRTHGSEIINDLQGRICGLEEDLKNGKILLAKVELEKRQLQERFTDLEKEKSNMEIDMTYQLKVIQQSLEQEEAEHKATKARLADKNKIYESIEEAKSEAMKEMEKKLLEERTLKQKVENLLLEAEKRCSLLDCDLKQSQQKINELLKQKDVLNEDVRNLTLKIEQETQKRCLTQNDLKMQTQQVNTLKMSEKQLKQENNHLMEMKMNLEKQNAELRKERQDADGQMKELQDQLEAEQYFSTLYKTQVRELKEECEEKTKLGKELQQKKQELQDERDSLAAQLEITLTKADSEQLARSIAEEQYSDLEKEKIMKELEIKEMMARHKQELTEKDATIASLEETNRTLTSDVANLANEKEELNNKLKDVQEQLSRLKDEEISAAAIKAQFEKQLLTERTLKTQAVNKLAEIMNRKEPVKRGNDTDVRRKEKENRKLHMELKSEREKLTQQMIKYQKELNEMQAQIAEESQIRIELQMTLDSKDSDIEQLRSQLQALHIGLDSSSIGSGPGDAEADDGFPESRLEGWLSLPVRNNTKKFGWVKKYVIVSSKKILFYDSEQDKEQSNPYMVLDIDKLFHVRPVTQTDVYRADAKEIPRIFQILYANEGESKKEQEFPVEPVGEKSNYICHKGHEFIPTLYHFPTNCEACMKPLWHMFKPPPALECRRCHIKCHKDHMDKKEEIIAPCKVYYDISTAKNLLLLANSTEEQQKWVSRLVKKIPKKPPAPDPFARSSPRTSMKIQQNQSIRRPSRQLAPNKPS

Row | SMILES | IC50 (ROCK2 kinase) | IC50 (ROCK1 kinase)
1 | COc1cc(F)cc(CNC(=O)c2nn(C)c3cc(-c4cn[nH]c4)ccc23)c1 [Compound T236] | ≤ 50 nM | ≤ 50 nM
2 | O=C(NCc1cc(F)cc(OCC2CC2)c1)N1CCc2cc(-c3c[nH]nc3F)c(F)cc21 [Compound T347, N-(3-(cyclopropylmethoxy)5-fluorobenzyl)-6-fluoro-5-(3-fluoro-1H-pyrazol-4-yl)indoline-1-carboxamide] | ≤ 50 nM | ≤ 50 nM
3 | O=C(NCc1cc(F)cc(OC(F)F)c1)N1CCc2cc(-c3cn[nH]c3)c(F)cc21 [Compound T375, N-(3-(difluoromethoxy)-5-fluorobenzyl)-6-fluoro-5-(1H-pyrazol-4-yl)indoline-1-carboxamide] | ≤ 50 nM | 50 to 500 nM
4 | Cn1cnc(CNC(=O)N2CCc3cc(-c4cn[nH]c4)ccc32)c1 [Compound T242] | 50 to 500 nM | 50 to 500 nM
5 | COc1cc(F)cc(CNC(=O)N2CCc3cc(-c4cn[nH]c4)ncc32)c1 [Compound T219] | ≤ 50 nM | ≤ 50 nM
6 | COc1cc(F)cc([C@@H](CO)NC(=O)c2ncn3cc(-c4cn[nH]c4)ccc23)c1 [Compound T344, (S)-N-(1-(3-fluoro-5-methoxyphenyl)-2-hydroxyethyl)-6-(1H-pyrazol-4-yl)imidazo[1,5-a]pyridine-1-carboxamide] | ≤ 50 nM | ≤ 50 nM
7 | COc1cc(F)cc([C@@H](CO)NC(=O)c2ncc3cc(-c4cn[nH]c4)ccn23)c1 [Compound T373, (5)-N-(1-(3-fluoro-5-methoxyphenyl)-2-hydroxyethyl)-7-(1H-pyrazol-4-yl)imidazo[1,5-a]pyridine-3-carboxamide] | ≤ 50 nM | ≤ 50 nM
8 | COc1cc(F)cc([C@@H](CO)NC(=O)N2CCc3cc(-c4c[nH]nc4C)c(F)cc32)c1 [Compound T381, (S)-6-fluoro-N-(1-(3-fluoro-5-methoxyphenyl)-2-hydroxyethyl)-5-(3-methyl-1H-pyrazol-4-yl)indoline-1-carboxamide] | ≤ 50 nM | ≤ 50 nM
9 | CN(C)CCC(NC(=O)N1CCc2cc(-c3cn[nH]c3)ccc21)c1ccccc1 (stereo not drawn) [Compound T248] | 50 to 500 nM | 50 to 500 nM
10 | CN1CC(NC(=O)c2cccc(CNC(=O)N3CCc4cc(-c5cn[nH]c5)c(F)cc43)c2)C1 [Compound T379, 6-fluoro-N-(3-((1-methylazetidin-3-yl)carbamoyl)benzyl)-5-(1H-pyrazol-4-yl)indoline-1-carboxamide] | ≤ 50 nM | ≤ 50 nM
11 | O=C(N[C@H](CO)c1cc(F)cc(OCC2CC2)c1)N1CCc2cc(-c3cn[nH]c3)c(F)cc21 [Compound T386, (S)-N-(1-(3-(cyclopropylmethoxy)-5-fluorophenyl)-2-hydroxyethyl)-6-fluoro-5-(1H-pyrazol-4-yl)indoline-1-carboxamide] | ≤ 50 nM | 50 to 500 nM
12 | Nc1n[nH]cc1-c1cc2c(cc1F)N(C(=O)NCc1cc(F)cc(F)c1)CC2 [Compound T364, 5-(3-amino-1H-pyrazol-4-yl)-6-fluoro-N-(3,5-difluorobenzyl)indoline-1-carboxamide] | 50 to 500 nM | 500 to 5000 nM
13 | COc1cc(F)cc([C@@H](CO)NC(=O)c2cnc3cc(-c4cn[nH]c4)ccn23)c1 [Compound T352, (S)-N-(1-(3-fluoro-5-methoxyphenyl)-2-hydroxyethyl)-7-(1H-pyrazol-4-yl)imidazo(1,2-a)pyridine-3-carboxamide] | ≤ 50 nM | ≤ 50 nM
14 | COc1cc(F)cc(CNC(=O)n2ccc3cc(-c4cn[nH]c4)ccc32)c1 [Compound T210] | 50 to 500 nM | 50 to 500 nM
15 | COc1cc(F)cc([C@@H](CO)NC(=O)N2CCc3cc(-c4c[nH]nc4Cl)c(F)cc32)c1 [Compound T359, (S)-5-(3-chloro-1H-pyrazol-4-yl)-6-fluoro-N-(1-(3-fluoro-5-methoxyphenyl)-2-hydroxyethyl)indoline-1-carboxamide] | ≤ 50 nM | 50 to 500 nM

Continued, values first:

Row | IC50 (ROCK2 kinase) | IC50 (ROCK1 kinase) | SMILES
16 | ≤ 50 nM | ≤ 50 nM | COc1cc(CNC(=O)N2CCc3cc(-c4cn[nH]c4)ccc32)ccn1 [Compound T227]
17 | ≤ 50 nM | ≤ 50 nM | O=C(NC1CCCC1)c1cccc([C@@H](CO)NC(=O)N2CCc3cc(-c4cn[nH]c4)c(F)cc32)c1 [Compound T356-S, (S)-N-(1-(3-(cyclopentylcarbamoyl)phenyl)-2-hydroxyethyl)-6-fluoro-5-(1H-pyrazol-4-yl)indoline-1-carboxamide]
18 | 50 to 500 nM | 50 to 500 nM | COc1cc(F)cc(CNC(=O)N2Cc3ccc(-c4cn[nH]c4)cc3C2)c1 [Compound T209, N-(3-fluoro-5-methoxybenzyl)-5-(1H-pyrazol-4-yl)isoindoline-2-carboxamide]
19 | ≤ 50 nM | 50 to 500 nM | CCOc1cc(F)cc([C@@H](CO)NC(=O)N2CCc3cc(-c4cn[nH]c4)c(F)cc32)c1 [Compound T390, (S′)-N-(1-(3-ethoxy-5-fluorophenyl)-2-hydroxyethyl)-6-fluoro-5-(1N-pyrazol-4-yl)indoline-1-carboxamide]
20 | 50 to 500 nM | 50 to 500 nM | Cn1cc(CNC(=O)N2CCc3cc(-c4cn[nH]c4)ccc32)cn1 [Compound T241]
21 | ≤ 50 nM | ≤ 50 nM | COc1cc(F)cc([C@@H](C)NC(=O)c2ncn3cc(-c4cn[nH]c4F)ccc23)c1 [Compound T370, (R)-6-(5-fluoro-1H-pyrazol-4-yl)-N-(1-(3-fluoro-5-methoxyphenyl)ethyl)imidazo[1,5-a]pyridine-1-carboxamide]
22 | ≤ 50 nM | ≤ 50 nM | O=C(COc1cc(F)cc([C@@H](CO)NC(=O)N2CCc3cc(-c4cn[nH]c4)c(F)cc32)c1)N1CC(F)(F)C1 [Compound T350, (S′)-N-(1-(3-(2-(3,3-difluoroazetidin-1-yl)-2-oxoethoxy)-5-fluorophenyl)-2-hydroxyethyl)-6-fluoro-5-(1H-pyrazol-4-yl)indoline-1-carboxamide]
23 | ≤ 50 nM | ≤ 50 nM | COc1cc(F)cc(CNC(=O)N2CC(C)(C)c3cc(-c4cn[nH]c4)ccc32)c1 [Compound T223]
24 | ≤ 50 nM | ≤ 50 nM | O=C(NCC1CC1)c1cccc(CNC(=O)N2CCc3cc(-c4cn[nH]c4)c(F)cc32)c1 [Compound T382, N-(3-((cyclopropylmethyl)carbamoyl)benzyl)-6-fluoro-5-(1H-pyrazol-4-yl)indoline-1-carboxamide]
25 | ≤ 50 nM | ≤ 50 nM | COc1cc(F)cc(C(C)NC(=O)N2CCc3cc(-c4cn[nH]c4)c(F)cc32)c1 (stereo not drawn) [Compound T341, 6-fluoro-N-(1-(3-fluoro-5-methoxyphenyl)ethyl)-5-(1H-pyrazol-4-yl)indoline-1-carboxamide]
26 | 50 to 500 nM | 50 to 500 nM | O=C(NCc1ccccc1)N1CCc2cc(-c3ccncc3)ccc21 [Compound T245]
27 | ≤ 50 nM | ≤ 50 nM | COc1cc(F)cc([C@@H](CO)NC(=O)N2CCc3cc(-c4c[nH]nc4F)c(F)cc32)c1 [Compound T374, (S)-6-fluoro-5-(3-fluoro-1H-pyrazol-4-yl)-N-(1-(3-fluoro-5-methoxyphenyl)-2-hydroxyethyl)indoline-1-carboxamide]
28 | 500 to 5000 nM | 500 to 5000 nM | COc1cccc(CCC(=O)N2CCc3cc(-c4c[nH]nc4N)c(F)cc32)c1 [Compound T383]
29 | ≤ 50 nM | ≤ 50 nM | COc1cc(F)cc(CNC(=O)c2cnc3cc(-c4cn[nH]c4)ccn23)c1 [Compound T233]
30 | ≤ 50 nM | ≤ 50 nM | COc1cc(F)cc(CNC(=O)N2CCc3ccc(-c4cn[nH]c4)cc3C2)c1 [Compound T208, N-(3-fluoro-5-methoxybenzyl)-7-(1H-pyrazol-4-yl)-3,4-dihydroisoquinoline-2(1H)-carboxamide]
31 | 50 to 500 nM | 50 to 500 nM | COc1cc(F)cc(CNC(=O)N2CCc3nc(-c4cn[nH]c4)sc3C2)c1 [Compound T224, N-(3-fluoro-5-methoxybenzyl)-2-(1H-pyrazol-4-yl)-6,7-dihydrothiazolo[5,4-c]pyridine-5(4H)-carboxamide]
32 | 50 to 500 nM |  | COc1cccc(F)c1C(CO)NC(=O)N1CCc2cc(-c3cn[nH]c3)c(F)cc21 (stereo not drawn) [Compound T363, 6-fluoro-N-(1-(2-fluoro-6-methoxyphenyl)-2-hydroxyethyl)-5-(1H-pyrazol-4-yl)indoline-1-carboxamide]

Source: US20230050653A1, “ROCK INHIBITOR AND PREPARATION METHOD THEREFOR AND USE THEREOF” (WUHAN LL SCIENCE AND TECHNOLOGY DEVELOPMENT CO., LTD., priority 2019, published 2023)
